According to patent US10664967B2, “Methods, systems, and apparatuses for quantitative analysis of heterogeneous biomarker distribution” (Ventana Medical Systems, Inc., priority 2014, dated 2020):

Tested on: SKBR3 cells
Test: Phosphomarker expression in untreated vs drug treated FFPE SKBR3 cells (multiplexed QD spectral imaging, IF, immunoblot)
Assay type: cell-based
Settings: 250 nM, 24 hrs, MTIP, consistent with IF and immunoblot
Method: Breast cancer cell line model SKBR3 and the prostate adenocarcinoma cell line model LNCaP were cultured in McCoy's 5A medium supplemented with 10% FBS. SKBR3 cells were treated with the ATP-competitive pan-AKT kinase inhibitor drug GSK690693 at low nanomolar concentration (250 nM) for 24 hrs for antibody validation studies. After drug treatment, cells were washed using cold 1×PBS, fixed in cold 10% Neutral Buffered Formalin and embedded in paraffin for sectioning and slide preparation.
Protein samples from SKBR3 cells were prepared by denaturing cell lysate in an equal volume of Laemmli sample buffer (Biorad, Hercules, Calif.) with 0.5 M dithiothreitol at 100° C. for 5 min. Proteins were separated by SDS-PAGE, transferred to polyvinylidene difluoride membranes, blotted with primary antibodies and detected with horseradish peroxidase-conjugated secondary antibodies. Protein bands were detected using ECL (Thermo Scientific).
Immunostaining for fluorescence spectral imaging was performed on FFPE specimens of SKBR3 cells and tumor tissue on a Benchmark XT autostainer (Ventana Medical Systems, Tucson, Ariz.), to evaluate phosphoprotein staining with the hapten-anti-hapten chemistry in FFPE cell and tumor specimens. All FFPE specimens (cell models, xenograft or tumor tissues) were subjected to automated deparaffinization in EZPREP buffer (VMSI Cat #950-102), and cell conditioning with CC1 buffer (VMSI Cat #950-124) for 90 min prior to antibody incubations. FFPE specimens were incubated with a single or a cocktail of hapten-conjugated primary antibodies (pS6:BF, pAKT 5473:DIG, peIF4G:TS, pPRAS40:NP, pERK 1/2:NCA, pAKT T308:DNP at 5, 15, 20, 20, 30, 12.5 μg/mL respectively) at 37° C. for 32 minutes. Following the primary antibody incubation step, samples were incubated by appropriate combination of secondary anti-hapten antibody QD conjugates (anti-BF:QD525, anti-DIG:QD565, anti-TS:QD585, anti-NP:[…], anti-NCA:QD625, anti-DNP:QD655 at 40, 50, 50, 70, 40, 30 nM concentrations respectively) at 37° C. for 32 minutes. Following automated staining with antibodies, samples were dehydrated in ethanol series, followed by xylene, and mounted using Cytoseal 60 (Thermo Scientific).
The specificity of the antibodies selected was tested using a series of IHC experiments using FFPE cell and xenograft model systems (FIGS. 14 15 and 16). The anti-phosphomarker hapten conjugated primary and anti-hapten monoclonal secondary functionality was tested using the SKBR3 cell line, a well-established breast cancer model of PI3K pathway activation (Englemen PNAS ref). SKBR3 cells were either untreated or treated with the AKT small molecule inhibitor GSK690693. The two cell populations were prepared as FFPE blocks and stained using the anti-phosphomarker primaries, followed by anti-hapten secondary antibodies conjugated to HRP to permit contrast through DAB. This permitted verification of the hapten-anti-hapten labeling scheme (FIG. 14; the DAB stain pattern was consistent with primary-anti-species secondary staining performed in parallel).
A multiplexed experiment was then conducted using the combined markers followed by hyperspectral imaging and processing to separate the signal contributions for each marker (FIG. 14b). For additional comparison, SKBR3 cell lysates were subjected to immunoblotting with all six phosphoantibodies (FIG. 14c). […] The similarity of phosphomarker expression changes upon drug treatment detected using MTIP to that observed in the IF and immunoblot staining validate the specificity and functionality of the conjugated antibodies used in the multiplexed assay context.

SMILES: CCn1c(-c2nonc2N)nc2c(C#CC(C)(C)O)ncc(OC[C@H]3CCCNC3)c21 [GSK690693]
- pAKT308 expression change following drug treatment: relative increase in expression
- pAKT473 expression change following drug treatment: relative increase in expression
- pERK expression change following drug treatment: reduction in the expression
- pPRAS40 expression change following drug treatment: reduction in the expression
- pS6 expression change following drug treatment: reduction in the expression
- peIF4G expression change following drug treatment: did not show any significant change in the expression
